Test results reported in patent US8916702B2 (priority 2012, dated 2014).

These compounds were tested on HCV pseudoparticles (genotype 1a HCV E1 and E2 envelope, H77C isolate) (assay: microbe, parasite or virus in culture). Details: Hepatitis C virus, Huh-7, 48 h, HCV pseudoparticle infection of Huh7 cells, luciferase 2 days after infection; average of duplicates.
Assay type: cell-based

Compound | EC50
CC(C)(CNC(=O)C(=O)Nc1ccc2c(c1)Cc1ccccc1-2)CNC(=O)c1ccc(Nc2nc(NC3(c4ccc(Cl)cc4)CC3)nc(OCC(F)(F)F)n2)cc1 [Compound 1570] | 50 pM
COC(=O)[C@H](CNC(=O)C(=O)NC1CCC(C)CC1)NC(=O)c1ccc(Nc2nc(NC3(c4ccc(Cl)cc4)CC3)nc(OCC(F)(F)F)n2)cc1 (stereo partly drawn) [Compound 1064] | 1890 pM

Same assay, conditions: Hepatitis C virus, Huh-7, 48 h, HCV pseudoparticles (genotype 1a, H77C) in Huh7 cells; average of duplicate; luciferase 2 days after infection

Compound | EC50
O=C(NCC[C@H](NC(=O)c1ccc(Nc2nc(NC3(c4ccc(Cl)cc4)CC3)nc(OCC(F)(F)F)n2)cc1)C(=O)O)C(=O)Nc1ccc(-c2ncco2)cc1 [Compound 3547] | 2090 pM
CC(C)(CNC(=O)C(N)=O)CNC(=O)c1ccc(Nc2nc(NC3(c4ccc(Cl)cc4)CC3)nc(OCC(F)(F)F)n2)cc1F [Compound 3388, N^1-(3-(4-((4-((1-(4-chlorophenyl)cyclopropyl)amino)-6-(2,2,2-trifluoroethoxy)-1,3,5-triazin-2-yl)amino)-2-fluorobenzamido)-2,2-dimethylpropyl)oxalamide] | 13 pM
Cn1ccc(NC(=O)C(=O)NCC(C)(C)CNC(=O)c2ccc(Nc3nc(NC4(c5ccc(Cl)cc5)CC4)nc(OCC(F)(F)F)n3)cc2F)n1 [Compound 3567] | 35 pM

Same assay, conditions: Hepatitis C virus, Huh-7, 48 h, HCV pseudoparticles, Huh7 cells, luciferase 2 days after infection; average of duplicates

Compound | EC50
COC(=O)[C@H](CNC(=O)C(=O)Nc1cccc(-c2ncc[nH]2)c1)NC(=O)c1ccc(Nc2nc(NC3(c4ccc(Cl)cc4)CC3)nc(OCC(F)(F)F)n2)cc1 [Compound 3709] | 710 pM

Same assay, conditions: Hepatitis C virus, Huh-7, 48 h, read-out: Activity (EC50 class), HCV pseudoparticle infection of Huh7 cells, luciferase 2 days after infection; EC50 expressed as class A/B

Compound | EC50
COC(=O)[C@H](CNC(=O)C(=O)NC1CCCCCCC1)NC(=O)c1ccc(Nc2nc(NC3(c4ccc(Cl)cc4)CC3)nc(OCC(F)(F)F)n2)cc1 [Compound 1068] | 10 to 10000 pM
CC(C)(CNC(=O)C(=O)Nc1ccc2c(c1)Cc1ccccc1-2)CNC(=O)c1ccc(Nc2nc(NC3(c4ccc(Cl)cc4)CC3)nc(OCC(F)(F)F)n2)cc1 [Compound 1570] | 10 to 10000 pM
COC(=O)[C@H](CNC(=O)C(=O)NC1CCC(C)CC1)NC(=O)c1ccc(Nc2nc(NC3(c4ccc(Cl)cc4)CC3)nc(OCC(F)(F)F)n2)cc1 (stereo partly drawn) [Compound 1064] | 10 to 10000 pM
COC(=O)[C@H](CCNC(=O)C(=O)NCC1CC1)NC(=O)c1ccc(Nc2nc(NC3(c4ccc(Cl)cc4)CC3)nc(OCC(F)(F)F)n2)cc1 [Compound 1196] | 10 to 10000 pM
O=C(NCCc1ccccc1F)C(=O)NCC[C@H](NC(=O)c1ccc(Nc2nc(NC3(c4ccc(Cl)cc4)CC3)nc(OCC(F)(F)F)n2)cc1)C(=O)O [Compound 1334] | 10 to 10000 pM
CCOC(=O)[C@H](CCCNC(=O)C(=O)N(C)C)NC(=O)c1ccc(Nc2nc(NC3(c4ccc(Cl)cc4)CC3)nc(OCC(F)(F)F)n2)cc1 [Compound 1031, (S)-ethyl 2-(4-(4-(1-(4-chlorophenyl)cyclopropylamino)-6-(2,2,2-trifluoroethoxy)-1,3,5-triazin-2-ylamino)benzamido)-5-(2-(dimethylamino)-2-oxoacetamido)pentanoate] | 10 to 10000 pM
O=C(NCc1ccccc1)C(=O)NC[C@H](NC(=O)c1ccc(Nc2nc(NC3(c4ccc(Cl)cc4)CC3)nc(OCC(F)(F)F)n2)cc1)C(=O)O [Compound 1164] | 10 to 10000 pM
CC(C)(CNC(=O)C(=O)Nc1cccc(-c2ccccc2)c1)CNC(=O)c1ccc(Nc2nc(NC3(c4ccc(Cl)cc4)CC3)nc(OCC(F)(F)F)n2)cc1 [Compound 1582] | 10 to 10000 pM
O=C(NCC[C@@H](NC(=O)c1ccc(Nc2nc(NC3(c4ccc(Cl)cc4)CC3)nc(OCC(F)(F)F)n2)cc1)C(=O)O)C(=O)Nc1ccc(-c2ccccc2)cc1 [Compound 1557] | 10 to 10000 pM
CC(C)(CNC(=O)C(=O)Nc1ccc(Cl)cc1)CNC(=O)c1ccc(Nc2nc(NC3(c4ccc(Cl)cc4)CC3)nc(OCC(F)(F)F)n2)cc1 [Compound 1559] | 10 to 10000 pM

Same assay, conditions: Hepatitis C virus, Huh-7, 48 h, read-out: Activity (EC50 class), HCV pseudoparticles, Huh7 cells, luciferase 2 days after infection; average of duplicates

Compound | EC50
COC(=O)[C@H](CNC(=O)C(=O)Nc1cccc(-n2cnnc2)c1)NC(=O)c1ccc(Nc2nc(NC3(c4ccc(Cl)cc4)CC3)nc(OCC(F)(F)F)n2)cc1 [Compound 3729] | 10 to 10000 pM
CC(C)c1ccc(COc2nc(Nc3ccc(C(=O)NCC(C)(C)CNC(=O)C(=O)Nc4ccccc4-c4ccccc4)c(F)c3)nc(NC3(c4ccc(Cl)cc4)CC3)n2)cc1 [Compound 3830, N^1-([1, 1′-biphenyl]-2-yl)-N^2-(3-(4-((4-((1-(4-chlorophenyl)cyclopropyl)amino)-6-((4-isopropylbenzyl)oxy)-1,3,5-triazin-2-yl)amino)-2-fluorobenzamido)-2,2-dimethylpropyl)oxalamide] | 10 to 10000 pM
CC(C)(CNC(=O)C(=O)Nc1ccc(-c2nc3ccccc3o2)cc1)CNC(=O)c1ccc(Nc2nc(NC3(c4ccc(Cl)cc4)CC3)nc(OCC(F)(F)F)n2)cc1 [Compound 3831] | 10 to 10000 pM
Cc1ccc(NC(=O)C(=O)NCC(C)(C)CNC(=O)c2ccc(Nc3nc(NC4(c5ccc(Cl)cc5)CC4)nc(OCc4ccccc4Cl)n3)cc2)cc1 [Compound 3850] | 10 to 10000 pM
O=C(NCC[C@H](NC(=O)c1ccc(Nc2nc(NC3(c4ccc(Cl)cc4)CC3)nc(OCC(F)(F)F)n2)cc1)C(=O)O)C(=O)Nc1ccc(N2CCCC2)nc1 [Compound 3645] | 10 to 10000 pM
COC(=O)[C@H](CCNC(=O)C(=O)Nc1cccc(Oc2ccccn2)c1)NC(=O)c1ccc(Nc2nc(NC3(c4ccc(Cl)cc4)CC3)nc(OCC(F)(F)F)n2)cc1 [Compound 3602] | 10 to 10000 pM
COC(=O)[C@H](CNC(=O)C(=O)Nc1cccc(-c2ncc[nH]2)c1)NC(=O)c1ccc(Nc2nc(NC3(c4ccc(Cl)cc4)CC3)nc(OCC(F)(F)F)n2)cc1 [Compound 3709] | 10 to 10000 pM

Same assay, conditions: Hepatitis C virus, Huh-7, read-out: Activity (EC50 class), HCV pseudoparticles (genotype 1a, H77C) in Huh7 cells; EC50 expressed as class A/B

Compound | EC50
CC(C)(CNC(=O)C(=O)NCc1ccc(F)cc1)CNC(=O)c1ccc(Nc2nc(NC3(c4ccc(Cl)cc4)CC3)nc(OCC(F)(F)F)n2)cc1F [Compound 3514] | 10 to 10000 pM
CC(CNC(=O)C(=O)N1CCc2ccccc2C1)CNC(=O)c1ccc(Nc2nc(NC3(c4ccc(Cl)cc4)CC3)nc(OCC(F)(F)F)n2)cc1 (stereo not drawn) [Compound 3471] | 10 to 10000 pM
CC(C)(CNC(=O)C(=O)NOc1ccccc1)CNC(=O)c1ccc(Nc2nc(NC3(c4ccc(Cl)cc4)CC3)nc(OCC(F)(F)F)n2)cc1 [Compound 3064] | 10 to 10000 pM
O=C(NCC[C@H](NC(=O)c1ccc(Nc2nc(NC3(c4ccc(Cl)cc4)CC3)nc(OCC(F)(F)F)n2)cc1)C(=O)O)C(=O)Nc1ccc(-c2ncco2)cc1 [Compound 3547] | 10 to 10000 pM
CCc1ccc(NC(=O)C(=O)NC[C@H](NC(=O)c2ccc(Nc3nc(NC4(c5ccc(Cl)cc5)CC4)nc(OCC(F)(F)F)n3)cc2)C(=O)OC)cc1 [Compound 3213] | 10 to 10000 pM
COC(=O)[C@H](CNC(=O)C(=O)Nc1ccc(C(C)(C)C)cc1)NC(=O)c1ccc(Nc2nc(NC3(c4ccc(Cl)cc4)CC3)nc(OCC(F)(F)F)n2)cc1 [Compound 3211] | 10 to 10000 pM
Cc1ccc(NC(=O)C(=O)NCC(O)CNC(=O)c2ccc(Nc3nc(NC4(c5ccc(Cl)cc5)CC4)nc(OCC(F)(F)F)n3)cc2)cc1Cl (stereo not drawn) [Compound 3466] | 10 to 10000 pM
CC(C)c1ccc(NC(=O)C(=O)NCC[C@H](NC(=O)c2ccc(Nc3nc(NC4(c5ccc(Cl)cc5)CC4)nc(OCC(F)(F)F)n3)cc2)C(=O)O)cc1 [Compound 3550] | 10 to 10000 pM
Cc1cc(NC(=O)C(=O)N(C)CCCN(C)C(=O)c2ccc(Nc3nc(NC4(c5ccc(Cl)cc5)CC4)nc(OCC(F)(F)F)n3)cc2)no1 [Compound 3423] | 10 to 10000 pM
COC(=O)[C@@H](CCNC(=O)C(=O)Nc1ccc(Cl)nc1)NC(=O)c1ccc(Nc2nc(NC3(c4ccc(Cl)cc4)CC3)nc(OCC(F)(F)F)n2)cc1 [Compound 3570] | 10 to 10000 pM
CC(C)(CNC(=O)C(N)=O)CNC(=O)c1ccc(Nc2nc(NC3(c4ccc(Cl)cc4)CC3)nc(OCC(F)(F)F)n2)cc1F [Compound 3388, N^1-(3-(4-((4-((1-(4-chlorophenyl)cyclopropyl)amino)-6-(2,2,2-trifluoroethoxy)-1,3,5-triazin-2-yl)amino)-2-fluorobenzamido)-2,2-dimethylpropyl)oxalamide] | 10 to 10000 pM
Cn1ccc(NC(=O)C(=O)NCC(C)(C)CNC(=O)c2ccc(Nc3nc(NC4(c5ccc(Cl)cc5)CC4)nc(OCC(F)(F)F)n3)cc2F)n1 [Compound 3567] | 10 to 10000 pM
CC(C)(CNC(=O)C(=O)Nc1ccccc1N1CCCCC1)CNC(=O)c1ccc(Nc2nc(NC3(c4ccc(Cl)cc4)CC3)nc(OCC(F)(F)F)n2)cc1 [Compound 3016] | 10 to 10000 pM
CC(C)(CNC(=O)C(=O)Nc1ccccc1-n1ccnc1)CNC(=O)c1ccc(Nc2nc(NC3(c4ccc(Cl)cc4)CC3)nc(OCC(F)(F)F)n2)cc1 [Compound 3180] | 10 to 10000 pM
CC(CNC(=O)C(N)=O)CNC(=O)c1ccc(Nc2nc(NC3(c4ccc(Cl)cc4)CC3)nc(OCC(F)(F)F)n2)cc1 (stereo not drawn) [Compound 3345] | 10 to 10000 pM
Cc1ccc(NC(=O)C(=O)N(CCO)CCCNC(=O)c2ccc(Nc3nc(NC4(c5ccc(Cl)cc5)CC4)nc(OCC(F)(F)F)n3)cc2)cc1 [Compound 3501] | 10 to 10000 pM
